According to patent US10703733B2, “MCL-1 inhibitors” (Gilead Sciences, Inc., priority 2018, dated 2020):
Like-named read-outs stand apart in the source and are kept apart here.

Key:
[1] = biological target: MCL-1/Bim interaction (recombinant human MCL-1 protein, residues 171-327; biotinylated human Bim peptide, residues 51-76) (Homo sapiens (Human), UniProt Q07820); assay: MCL-1/Bim Binding AlphaLISA Assay; conditions: 0.0625 nM 6xHis-Mcl-1 (171-327), 0.0625 nM biotinylated-Bim peptide
Experimental: MCL-1/Bim Binding AlphaLISA Assay.
Inhibition of the MCL-1 and Bim interaction was measured in the following AlphaLISA assay.
Recombinant human MCL-1 protein (C-terminal 6×His Tagged Mcl-1 containing residues 171-327) was generated at Gilead Sciences, Inc. (Foster City, Calif.). A biotinylated peptide derived from human Bim (residues 51-76) was purchased from CPC Scientific (Sunnyvale, Calif.). (CPC 834113). AlphaLISA anti-6His-acceptor beads (AL128R), AlphaScreen Streptavidin donor beads (6760002B), and Proxiplate-384 Plus (6008289) were purchased from PerkinElmer.
The AlphaLISA assay was performed in a 384-well Proxiplate in a total volume of […]. The reaction mixture contained 0.0625 nM 6×His-Mcl-1 (171-327), 0.0625 nM biotinylated-Bim peptide, 10 μg/mL AlphaLISA anti-6×His-AlphaLISA acceptor beads, […] AlphaScreen streptavidin donor beads, and serially diluted test compounds in the binding buffer (20 mM Hepes, pH 7.5 (Teknova H1035); 150 mM NaCl (Promega V4221); 0.002% Brij 35 (Thermo Scientific 20150); 1 mM Dithiothreitol (DTT) Solution (Affymetrix 70726); 0.01% BSA (BioLabs B9000S)). 1,000×test compounds were pre-spotted onto 384-well Proxiplate (Labcyte Echo) by Echo 555 Liquid Handler (Labcyte Inc., San Jose, Calif.) followed by incubation of 5 μl Mcl-1(171-327) for 1 hour. Then 5 μL Bim (51-76) was added and incubated for 2 hours. Five μL AlphaLISA anti-6His-AlphaLISA acceptor beads were then added for 1 hour followed by addition of 5 μL AlphaScreen streptavidin donor beads for 1 hour. The reaction plates were then read on an Envision multimode reader (PerkinElmer) using AlphaScreen settings. […] Percent inhibition was calculated as shown below: % Inhibition=100%*(Well−Neg)/(Pos−Neg) Neg: negative control, DMSO Pos: positive control, no Mcl-1 protein, no biotinylated-Bim peptide

SKBR3 cells = assay: SKBR3 Cell Viability Assay (CellTiter Glo); assay type: cell-based; conditions: CellTiter Glo luminescence, read-out: MCL-1 CV SKBR3 EC50
Experimental: SKBR3 Cell Viability Assay Materials
SKBR3 Cells (ATCC HTB-30) were obtained from ATCC (Manassas, Va.) and cultured in McCoy 5A's medium (ATCC 30-2007)+10% fetal bovine serum (SH30071.03, HyClone, Pittsburgh, Pa.) plus 1× Penicillin-Streptomycin L-glutamine (Corning 30-009-C1, Corning, N.Y.)).
The cell viability assay was conducted in a 384-well tissue culture plate (Grenier 781086, Monroe, N.C.) in a total volume of 70 μL. Test compounds were prepared in 1,000×, serially diluted, and pre-spotted into 384-well tissue culture plate by Echo 555 Liquid Handler (Labcyte Inc., San Jose, Calif.). Seventy μl of 6,000 SKBR3 cells were dispensed into each well of the plate and incubated at 37° C. with 5% CO2 for 72 hours. At the end of incubation, 2× CellTiter Glo (CTG) reagents (1 part buffer with 2 parts substrate) (Promega, Madison, Wis.) were prepared, and the plate and the reagent were equilibrated to room temperature for 30 minutes. CTG reagent was added to each plate by Biomek FX at 20 μL/well with 5 times pipetting and mixing to induce cell lysis. Luminescence was read by Envision multimode reader (PerkinElmer). […] Percent inhibition was calculated as followed: % Inhibition=100%*(Well−Neg)/(Pos−Neg) Neg, negative control, DMSO Pos, positive control, 10 μM Puromycin

Sequence of MCL-1/Bim interaction (recombinant human MCL-1 protein, residues 171-327; biotinylated human Bim peptide, residues 51-76) (Q07820 171-327): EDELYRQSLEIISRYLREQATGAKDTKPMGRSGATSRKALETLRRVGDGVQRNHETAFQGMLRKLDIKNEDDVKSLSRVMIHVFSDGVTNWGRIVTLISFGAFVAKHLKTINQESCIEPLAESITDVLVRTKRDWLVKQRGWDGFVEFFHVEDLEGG

SMILES | IC50 [1] [nM] | EC50 (SKBR3 cells; Homo sapiens, SK-BR-3, 72 h) [nM] | EC50 (SKBR3 cells; 72 hours) [nM]
CO[C@H]1/C=C/C[C@H](C)C[S@@](=O)(NC(=O)N[C@H]2C[C@H](O)C2)=NC(=O)c2ccc3c(c2)N(C[C@@H]2CC[C@H]21)C[C@@]1(CCCc2cc(Cl)ccc21)CO3 [Example 452] | 0.045 | 282 | 
CO[C@H]1/C=C/C[C@H](C)C[S@@](=O)(NC(=O)N2CC(CO)(OC)C2)=NC(=O)c2ccc3c(c2)N(C[C@@H]2CC[C@H]21)C[C@@]1(CCCc2cc(Cl)ccc21)CO3 [Example 267] | 0.03 | 184 | 
CO[C@H]1/C=C/C[C@H](C)C[S@@](=O)(NC(=O)N2CC(OC(=O)N(C)C)C2)=NC(=O)c2ccc3c(c2)N(C[C@@H]2CC[C@H]21)C[C@@]1(CCCc2cc(Cl)ccc21)CO3 [Example 292] | 0.02 | 45.1 | 
CO[C@H]1/C=C/C[C@H](C)C[S@@](=O)(NC(=O)c2cnn(C(F)F)c2)=NC(=O)c2ccc3c(c2)N(C[C@@H]2CC[C@H]21)C[C@@]1(CCCc2cc(Cl)ccc21)CO3 [Example 119] | 0.145 | 93.8 | 
CO[C@H]1/C=C/C[C@H](C)C[S@@](=O)(NC(=O)N2CCC(C(F)F)CC2)=NC(=O)c2ccc3c(c2)N(C[C@@H]2CC[C@H]21)C[C@@]1(CCCc2cc(Cl)ccc21)CO3 [Example 258] | 0.117 | 195 | 
CO[C@H]1/C=C/CCC[S@@](=O)(NC(=O)COc2ccccc2)=NC(=O)c2ccc3c(c2)N(C[C@@H]2CC[C@H]21)C[C@@]1(CCCc2cc(Cl)ccc21)CO3 [Example 96] | 0.4 | 604 | 
CO[C@H]1/C=C/C[C@H](C)C[S@@](=O)(NC(=O)c2cn(C)nc2C(F)F)=NC(=O)c2ccc3c(c2)N(C[C@@H]2CC[C@H]21)C[C@@]1(CCCc2cc(Cl)ccc21)CO3 [Example 448] | 0.117 | 251 | 
CO[C@H]1/C=C/CCC[S@](=O)(NC(=O)N2CCS(=O)(=O)CC2)=NC(=O)c2ccc3c(c2)N(C[C@@H]2CC[C@H]21)C[C@@]1(CCCc2cc(Cl)ccc21)CO3 [Example 74] | 7.3 | 10000 | 
COCC1(COC)Cn2cc(C(=O)N[S@@]3(=O)=NC(=O)c4ccc5c(c4)N(C[C@@H]4CC[C@H]4[C@@H](O)/C=C/C[C@H](C)[C@H]3C)C[C@@]3(CCCc4cc(Cl)ccc43)CO5)cc2CO1 [Example 331] | 0.075 | 68.9 | 
CO[C@H]1/C=C/CCC[S@@](=O)(NC(=O)CCn2cc(C)cn2)=NC(=O)c2ccc3c(c2)N(C[C@@H]2CC[C@H]21)C[C@@]1(CCCc2cc(Cl)ccc21)CO3 [Example 61] | 0.1 | 775 | 
CO[C@H]1/C=C/C[C@H](C)C[S@@](=O)(NC(=O)N[C@H]2C[C@H](F)C2)=NC(=O)c2ccc3c(c2)N(C[C@@H]2CC[C@H]21)C[C@@]1(CCCc2cc(Cl)ccc21)CO3 [Example 357] | 0.113 | 206 | 
CO[C@H]1/C=C/C[C@H](C)C[S@@](=O)(NC(=O)N2CC(C)(OC)C2)=NC(=O)c2ccc3c(c2)N(C[C@@H]2CC[C@H]21)C[C@@]1(CCCc2cc(Cl)ccc21)CO3 [Example 363] | 0.042 | 46.5 | 
CO[C@H]1/C=C/C[C@H](C)C[S@@](=O)(NC(=O)N2CC(OC(F)F)C2)=NC(=O)c2ccc3c(c2)N(C[C@@H]2CC[C@H]21)C[C@@]1(CCCc2cc(Cl)ccc21)CO3 [Example 354] | 0.039 | 36.9 | 
COC[C@@H]1CCN(C(=O)N[S@@]2(=O)=NC(=O)c3ccc4c(c3)N(C[C@@H]3CC[C@H]3[C@@H](OC)/C=C/C[C@H](C)C2)C[C@@]2(CCCc3cc(Cl)ccc32)CO4)C1 [Example 256] | 0.162 | 161 | 
CO[C@H]1/C=C/C[C@H](C)C[S@@](=O)(NC(=O)C2CC3(CCOCC3)C2)=NC(=O)c2ccc3c(c2)N(C[C@@H]2CC[C@H]21)C[C@@]1(CCCc2cc(Cl)ccc21)CO3 [Example 435] | 0.114 | 167 | 
CO[C@H]1/C=C/CCC[S@@](=O)(NC(=O)CCn2cncn2)=NC(=O)c2ccc3c(c2)N(C[C@@H]2CC[C@H]21)C[C@@]1(CCCc2cc(Cl)ccc21)CO3 [Example 42] | 0.1 | 3340 | 

SMILES | IC50 [1] [nM] | EC50 (SKBR3 cells; Homo sapiens, SK-BR-3, 72 h) [nM] | EC50 (SKBR3 cells; 72 hours) [nM]
COc1nn(C)cc1C(=O)N[S@@]1(=O)=NC(=O)c2ccc3c(c2)N(C[C@@H]2CC[C@H]2[C@@H](OC)/C=C/[C@H](OCc2ccccn2)[C@H](C)C1)C[C@@]1(CCCc2cc(Cl)ccc21)CO3 [Example 402] | 0.098 | 90.2 | 
COc1nn(C)cc1C(=O)N[S@@]1(=O)=NC(=O)c2ccc3c(c2)N(C[C@@H]2CC[C@H]2[C@@H](OC)/C=C/CCC1)C[C@@]1(CCCc2cc(Cl)ccc21)CO3 [Example 389] | 0.075 | 304 | 
CCn1nccc1CCC(=O)N[S@@]1(=O)=NC(=O)c2ccc3c(c2)N(C[C@@H]2CC[C@H]2[C@@H](OC)/C=C/CCC1)C[C@@]1(CCCc2cc(Cl)ccc21)CO3 [Example 45] | 0.1 | 191 | 
CCC(=O)N[S@]1(=O)=NC(=O)c2ccc3c(c2)N(C[C@@H]2CC[C@H]2[C@@H](OC)/C=C/CCCC1)C[C@@]1(CCCc2cc(Cl)ccc21)CO3 [Example 69] |  |  | 7800
CCNC(=O)N[S@@]1(=O)=NC(=O)c2ccc3c(c2)N(C[C@@H]2CC[C@H]2[C@@H](OC)CCCCC1)C[C@@]1(CCCc2cc(Cl)ccc21)CO3 [Example 14] |  |  | 356
CCC(=O)N[S@]1(=O)=NC(=O)c2ccc3c(c2)N(C[C@@H]2CC[C@H]2[C@@H](O)/C=C/CCC1)C[C@@]1(CCCc2cc(Cl)ccc21)CO3 [Example 63] |  |  | 9710
CCC(=O)N[S@@]1(=O)=NC(=O)c2ccc3c(c2)N(C[C@@H]2CC[C@H]2[C@@H](O)/C=C/CCC1)C[C@@]1(CCCc2cc(Cl)ccc21)CO3 [Example 62] |  |  | 2430
COC1Cc2cc(C(=O)N[S@@]3(=O)=NC(=O)c4ccc5c(c4)N(C[C@@H]4CC[C@H]4[C@@H](OC)/C=C/C[C@H](C)C3)C[C@@]3(CCCc4cc(Cl)ccc43)CO5)cn2C1 (some centres unmarked) [Example 205] |  |  | 58.9
CO[C@H]1/C=C/C[C@H](C)[C@@H](C)[S@@](=O)(NC(=O)c2cnn(C3COC3)c2)=NC(=O)c2ccc3c(c2)N(C[C@@H]2CC[C@H]21)C[C@@]1(CCCc2cc(Cl)ccc21)CO3 [Example 152] |  |  | 55.7
CCC(=O)NS1(=O)=NC(=O)c2ccc3c(c2)N(C[C@@H]2CC[C@H]2[C@@H](OC)/C=C/CCC1)C[C@@]1(CCCc2cc(Cl)ccc21)CO3 (single isomer, unassigned) [Example 4] |  |  | 899
CCC(=O)N[S@@]1(=O)=NC(=O)c2ccc3c(c2)N(C[C@@H]2CC[C@H]2[C@@H](OC)CCCCC1)C[C@@]1(CCCc2cc(Cl)ccc21)CO3 [Example 11] |  |  | 10000
CCC(=O)N[S@@]1(=O)=NC(=O)c2ccc3c(c2)N(C[C@@H]2CC[C@H]2[C@@H](OC)CCCCC1)C[C@@]1(CCCc2ccccc21)CO3 [Example 16] |  |  | 10000
CO[C@H]1/C=C/C[C@H](C)C[S@@](=O)(NC(=O)C2CC(OC(F)F)C2)=NC(=O)c2ccc3c(c2)N(C[C@@H]2CC[C@H]21)C[C@@]1(CCCc2cc(Cl)ccc21)CO3 (some centres unmarked) [Example 431] |  | 233 | 
CO[C@H]1/C=C/C[C@H](C)[C@@H](C)S(=O)(=O)NC(=O)c2ccc3c(c2)N(C[C@@H]2CC[C@H]21)C[C@@]1(CCCc2cc(Cl)ccc21)CO3 [Comparative Example 1, reference compound] |  |  | 2190
CO[C@H]1/C=C/C[C@H](C)[C@@H](C)[S@@](=O)(NC(=O)C(F)(F)F)=NC(=O)c2ccc3c(c2)N(C[C@@H]2CC[C@H]21)C[C@@]1(CCCc2cc(Cl)ccc21)CO3 [Example 370] |  | 5800 | 
